# Laboratory results reported in US11767322B2 (BRISTOL-MYERS SQUIBB COMPANY, priority 2020, dated 2023).
# pIC50: −log10 of the molar value. Read-outs that look alike come from different tables or passages of the source.
# Tests used:
# [1] = target: T1, His-GST-TVMV-hRIPK1(1-324) (Homo sapiens, UniProt Q13546); assay: biochemical; type: binding
# T1 construct: The coding region of human RIPK1(1-324) flanked by NdeI site at 5′ end; made in house; host or cells: Spodoptera frugiperda Sf9 insect cells (baculovirus, Bac-to-Bac)
# T1 sequence (Q13546 1-324): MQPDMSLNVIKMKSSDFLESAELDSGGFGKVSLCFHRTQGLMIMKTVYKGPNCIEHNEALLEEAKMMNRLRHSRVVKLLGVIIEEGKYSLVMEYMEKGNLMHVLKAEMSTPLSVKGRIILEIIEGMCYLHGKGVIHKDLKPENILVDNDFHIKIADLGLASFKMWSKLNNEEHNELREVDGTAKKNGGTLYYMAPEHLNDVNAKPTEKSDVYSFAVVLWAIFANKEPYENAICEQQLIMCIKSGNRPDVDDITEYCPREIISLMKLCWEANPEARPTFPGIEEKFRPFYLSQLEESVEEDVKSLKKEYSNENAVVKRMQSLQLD
# [2] = test system: MLKL phosphorylation in HT29-L23 human colorectal adenocarcinoma cells; assay: MLKL phosphorylation high-content assay; type: cell-based
# [3] = target: GST-tagged PIK3Cδ in complex with PIK3R1 (Homo sapiens, UniProt O00329); assay: PI3Kδ HTRF binding assay; conditions: read-out: PIK3CD IC50
# [4] = HTRF probe displacement, 1 h at rt, read-out: RIPK1 IC50
# [5] = Homo sapiens, 6 h, read-out: pMLKL IC50, HT29-L23 cells, necroptosis induced with TNFα, SMAC mimetic and Z-VAD, 6 h, maximal inhibition defined by Nec1s
# [6] = HTRF probe displacement, 1 h at rt
# [7] = HT29-L23 cells, necroptosis induced with TNFα, SMAC mimetic and Z-VAD, 6 h, maximal inhibition defined by Nec1s, read-out: pMLKL IC50
# [8] = Table 22, compounds of the present invention, read-out: RPIK1 IC50
# [9] = Homo sapiens, read-out: pMLKL IC50, Table 22, compounds of the present invention
# Chain of GST-tagged PIK3Cδ in complex with PIK3R1 (O00329 whole entry): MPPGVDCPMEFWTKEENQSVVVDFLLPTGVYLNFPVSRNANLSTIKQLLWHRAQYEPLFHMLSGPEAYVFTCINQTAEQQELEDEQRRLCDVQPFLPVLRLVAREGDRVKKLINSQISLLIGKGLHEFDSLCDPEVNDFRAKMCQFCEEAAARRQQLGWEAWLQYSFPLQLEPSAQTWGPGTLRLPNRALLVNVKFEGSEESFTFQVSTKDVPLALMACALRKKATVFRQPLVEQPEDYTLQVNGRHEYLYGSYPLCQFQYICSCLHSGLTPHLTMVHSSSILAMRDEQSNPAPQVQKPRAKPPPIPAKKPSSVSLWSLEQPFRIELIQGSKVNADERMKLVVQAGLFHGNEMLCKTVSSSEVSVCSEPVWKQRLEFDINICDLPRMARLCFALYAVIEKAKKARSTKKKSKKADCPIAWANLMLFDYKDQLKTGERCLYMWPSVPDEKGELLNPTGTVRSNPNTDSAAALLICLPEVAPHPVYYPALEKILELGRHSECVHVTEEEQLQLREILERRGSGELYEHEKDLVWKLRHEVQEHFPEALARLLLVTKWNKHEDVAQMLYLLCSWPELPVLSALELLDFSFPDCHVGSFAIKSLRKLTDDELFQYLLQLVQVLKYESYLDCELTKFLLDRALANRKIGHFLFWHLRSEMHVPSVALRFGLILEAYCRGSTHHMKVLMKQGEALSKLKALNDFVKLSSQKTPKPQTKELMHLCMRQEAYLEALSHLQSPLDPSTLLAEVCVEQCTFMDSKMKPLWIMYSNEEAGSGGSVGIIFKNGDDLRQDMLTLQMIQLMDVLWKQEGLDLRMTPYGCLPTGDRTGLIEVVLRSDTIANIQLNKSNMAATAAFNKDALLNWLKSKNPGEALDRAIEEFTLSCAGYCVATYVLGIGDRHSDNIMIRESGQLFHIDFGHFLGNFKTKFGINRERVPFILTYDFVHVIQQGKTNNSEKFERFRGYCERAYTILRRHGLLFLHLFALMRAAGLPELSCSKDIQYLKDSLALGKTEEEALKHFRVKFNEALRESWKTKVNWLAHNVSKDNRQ
# Chain of GST-tagged PIK3Cδ in complex with PIK3R1 (P27986 whole entry partner): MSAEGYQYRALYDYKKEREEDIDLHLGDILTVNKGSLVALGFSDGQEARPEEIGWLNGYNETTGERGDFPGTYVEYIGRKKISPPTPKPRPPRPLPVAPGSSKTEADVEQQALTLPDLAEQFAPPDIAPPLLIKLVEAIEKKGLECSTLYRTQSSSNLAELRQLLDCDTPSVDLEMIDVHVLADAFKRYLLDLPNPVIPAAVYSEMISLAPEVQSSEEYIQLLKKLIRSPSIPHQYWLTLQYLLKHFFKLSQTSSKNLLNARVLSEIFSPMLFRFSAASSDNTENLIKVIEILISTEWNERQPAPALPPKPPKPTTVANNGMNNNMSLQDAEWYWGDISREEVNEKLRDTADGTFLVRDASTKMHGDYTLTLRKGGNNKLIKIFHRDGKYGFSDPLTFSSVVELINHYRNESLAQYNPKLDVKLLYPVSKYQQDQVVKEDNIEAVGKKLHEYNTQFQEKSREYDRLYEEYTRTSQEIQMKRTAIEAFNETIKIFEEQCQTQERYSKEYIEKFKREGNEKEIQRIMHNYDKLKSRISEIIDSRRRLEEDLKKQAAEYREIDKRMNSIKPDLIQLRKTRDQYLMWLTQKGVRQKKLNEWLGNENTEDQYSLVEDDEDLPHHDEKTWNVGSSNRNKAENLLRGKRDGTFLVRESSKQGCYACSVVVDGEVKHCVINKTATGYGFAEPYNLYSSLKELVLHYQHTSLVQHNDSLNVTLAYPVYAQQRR
SMILES,"pIC50 [1, 4]","pIC50 [2, 5]","pIC50 [3, 6]",also measured
"Nc1nc2cc(-c3ccc(Cl)c(C(=O)NC[C@H](F)[C@@H](O)c4ccc(F)cc4)c3F)ccn2n1 (single isomer, unassigned) [Example 296]",7.82,7.66,5.00,–
"Nc1nc2cc(-c3ccc(Cl)c(C(=O)NC[C@@H](F)[C@H](O)c4ccc(F)cc4)c3F)ccn2n1 (single isomer, unassigned) [Example 297]",8.43,8.80,< 4.82,–
"Nc1nc2cc(-c3ccc(Cl)c(C(=O)NC[C@@H](F)[C@@H](O)c4ccc(F)cc4)c3F)ccn2n1 (single isomer, unassigned) [Example 298]",8.54,9.30,5.10,–
"Nc1nc2cc(-c3ccc(Cl)c(C(=O)NC[C@H](F)[C@H](O)c4ccc(F)cc4)c3F)ccn2n1 (single isomer, unassigned) [Example 299]",7.80,7.43,5.00,–
"COc1c(-c2ccc(C)c(C(=O)NCC(F)(F)C(O)c3ccc(F)cc3)c2F)ccn2nc(N)nc12 (single isomer, unassigned; enantiomer 1) [Example 135]",–,–,< 4.82,"pIC50 ([1]; RIPK1 IC50): 8.25; pIC50 [2, 7]: 9.30"
"Cc1ccc(-c2ccn3nc(N)nc3c2)c(F)c1C(=O)NCCC(C)(C)c1ccc(Cl)cc1 [Example 15, 3-(2-amino-[1,2,4]triazolo[1,5-a]pyridin-7-yl)-N-(3-(4-chlorophenyl)-3-methylbutyl)-2-fluoro-6-methylbenzamide]",8.82,8.77,< 4.82,–
"Cc1ccc(-c2ccn3nc(N)nc3c2)c(F)c1C(=O)NCCC1(c2ccc(F)cc2)CC1 [Example 16, 3-(2-amino-[1,2,4]triazolo[1,5-a]pyridin-7-yl)-2-fluoro-N-(2-(1-(4-fluorophenyl)cyclopropyl)ethyl)-6-methylbenzamide]",9.15,9.40,< 4.82,–
"Cc1ccc(-c2ccn3nc(N)nc3c2)c(F)c1C(=O)NCC(F)(F)C(O)c1ccc(Cl)cc1 (stereo not drawn) [Example 29, 3-(2-amino-[1,2,4]triazolo[1,5-a]pyridin-7-yl)-N-(3-(4-chlorophenyl)-2,2-difluoro-3-hydroxypropyl)-2-fluoro-6-methylbenzamide]",8.66,9.15,< 4.82,–
"Cc1ccc(-c2ccn3nc(N)nc3c2)c(F)c1C(=O)NC(C)CC(O)c1ccc(F)cc1 (stereo not drawn) [Example 35, 3-(2-amino-[1,2,4]triazolo[1,5-a]pyridin-7-yl)-2-fluoro-N-(4-(4-fluorophenyl)-4-hydroxybutan-2-yl)-6-methylbenzamide]",8.70,9.05,5.41,–
"Cc1ccc(-c2ccn3nc(N)nc3c2)c(F)c1C(=O)NCCC(O)c1cccc(Cl)c1 (stereo not drawn) [Example 43, 3-(2-amino-[1,2,4]triazolo[1,5-a]pyridin-7-yl)-N-(3-(3-chlorophenyl)-3-hydroxypropyl)-2-fluoro-6-methylbenzamide]",8.49,8.59,–,pIC50 [3]: 4.96
"Cc1ccc(-c2ccn3nc(N)nc3c2)c(F)c1C(=O)NCCCC1CCCCC1 [Example 52, 3-(2-amino-[1,2,4]triazolo[1,5-a]pyridin-7-yl)-N-(3-cyclohexylpropyl)-2-fluoro-6-methylbenzamide]",9.52,8.96,< 4.82,–
"Cc1ccc(-c2ccn3nc(N)nc3c2)c(F)c1C(=O)NCCC(C)(C)c1ccccc1 [Example 58, 3-(2-amino-[1,2,4]triazolo[1,5-a]pyridin-7-yl)-2-fluoro-6-methyl-N-(3-methyl-3-phenylbutyl)benzamide]",8.68,8.64,< 4.82,–
"Nc1nc2cc(-c3ccc(Cl)c(C(=O)NCCC4(c5ccc(F)cc5)CC4)c3F)ccn2n1 [Example 84, 3-(2-amino-[1,2,4]triazolo[1,5-a]pyridin-7-yl)-6-chloro-2-fluoro-N-(2-(1-(4-fluorophenyl)cyclopropyl)ethyl)benzamide]",8.80,8.96,< 4.82,–
"Cc1c(F)cc(-c2ccn3nc(N)nc3c2)cc1C(=O)NCCC(C)c1ccccc1 (stereo not drawn) [Example 95, 5-{2-amino-[1,2,4]triazolo[1,5-a]pyridin-7-yl}-3-fluoro-2-methyl-N-(3-phenylbutyl)benzamide]",8.52,8.23,< 4.82,–
"Cc1c(C(=O)NCC[C@H](O)c2ccc(Cl)cc2)cc(-c2ccn3nc(N)nc3c2)c(F)c1F [Example 99, (S)-5-(2-amino-[1,2,4]triazolo[1,5-a]pyridin-7-yl)-N-(3-(4-chlorophenyl)-3-hydroxypropyl)-3,4-difluoro-2-methylbenzamide]",8.26,8.54,< 4.82,–
"Cc1ccc(-c2ccn3nc(N)nc3c2)c(F)c1C(=O)NCC(F)(F)C(O)c1ccc(F)cn1 (stereo not drawn) [Example 115, 3-{2-amino-[1,2,4]triazolo[1,5-a]pyridin-7-yl}-N-[2,2-difluoro-3-(5-fluoropyridin-2-yl)-3-hydroxypropyl]-2-fluoro-6-methylbenzamide]",8.44,–,–,"pIC50 [2, 7]: 8.85; pIC50 [3]: < 4.82"
"Nc1nc2cc(-c3ccc(Cl)c(C(=O)NCC(F)C(O)c4ccc(F)cc4)c3F)ccn2n1 (stereo not drawn) [Example 130, 3-(2-amino-[1,2,4]triazolo[1,5-a]pyridin-7-yl)-6-chloro-2-fluoro-N-(2-fluoro-3-(4-fluorophenyl)-3-hydroxypropyl)benzamide enantiomeric mixture 1]",8.13,8.54,5.31,–
"Cc1ccc(-c2ccn3nc(N)nc3c2F)c(F)c1C(=O)NCC[C@H](O)c1ccc(Cl)cc1 [Example 132, (S)-3-(2-amino-8-fluoro-[1,2,4]triazolo[1,5-a]pyridin-7-yl)-N-(3-(4-chlorophenyl)-3-hydroxypropyl)-2-fluoro-6-methylbenzamide]",8.08,8.96,< 4.82,–
"C#Cc1ccc([C@@H](O)CCNC(=O)c2c(C)ccc(-c3ccn4nc(N)nc4c3)c2F)cc1 [Example 142, 3-{2-amino-[1,2,4]triazolo[1,5-a]pyridin-7-yl}-N-[(3S)-3-(4-ethynylphenyl)-3-hydroxypropyl]-2-fluoro-6-methylbenzamide]",8.48,8.60,< 4.82,–
"Cc1ccc(-c2ccn3nc(N)nc3c2)c(Cl)c1C(=O)NCC[C@H](O)c1ccc(Cl)cc1 [Example 145, (S)-3-(2-amino-[1,2,4]triazolo[1,5-a]pyridin-7-yl)-2-chloro-N-(3-(4-chlorophenyl)-3-hydroxypropyl)-6-methylbenzamide]",7.68,7.46,< 4.82,–
"COc1ccc(-c2ccn3nc(N)nc3c2)c(F)c1C(=O)NCC[C@H](O)c1ccc(Cl)cc1 [Example 147, (S)-3-(2-amino-[1,2,4]triazolo[1,5-a]pyridin-7-yl)-N-(3-(4-chlorophenyl)-3-hydroxypropyl)-2-fluoro-6-methoxybenzamide]",8.03,7.68,–,"pIC50 [1, 8]: 8.03; pIC50 [2, 9]: 7.68; pIC50 [3]: 4.89"
"COc1ccc(-c2ccn3nc(N)nc3c2)c(F)c1C(=O)NCC[C@@H](O)c1ccc(Cl)cc1 [Example 148, (R)-3-(2-amino-[1,2,4]triazolo[1,5-a]pyridin-7-yl)-N-(3-(4-chlorophenyl)-3-hydroxypropyl)-2-fluoro-6-methoxybenzamide]",8.08,7.77,–,pIC50 [3]: 5.30
"Cc1ccc(-c2ccn3nc(N)nc3c2)cc1C(=O)NCC[C@H](O)c1ccc(Cl)cc1 [Example 149, (S)-5-(2-amino-[1,2,4]triazolo[1,5-a]pyridin-7-yl)-N-(3-(4-chlorophenyl)-3-hydroxypropyl)-2-methylbenzamide]",8.09,–,< 4.82,"pIC50 [1, 8]: 8.09; pIC50 ([2]; Homo sapiens, 6 h, HT29-L23 cells, necroptosis induced with TNFα, SMAC mimetic and Z-VAD, 6 h, maximal inhibition defined by Nec1s, read-out: pMLKL IC50): 8.89; pIC50 ([2]; Homo sapiens, Table 22, compounds of the present invention, read-out: pMLKL IC50): 8.89"
"CCc1ccc(-c2ccn3nc(N)nc3c2)cc1C(=O)NCC[C@H](O)c1ccc(Cl)cc1 [Example 150, (S)-5-(2-amino-[1,2,4]triazolo[1,5-a]pyridin-7-yl)-N-(3-(4-chlorophenyl)-3-hydroxypropyl)-2-ethylbenzamide]",8.74,8.24,< 4.82,–
"Cc1ccc(-c2ccn3nc(N)nc3c2)c(F)c1C(=O)NCC[C@@H](O)c1ccc(Cl)cc1 [Example 152, (R)-3-(2-amino-[1,2,4]triazolo[1,5-a]pyridin-7-yl)-N-(3-(4-chlorophenyl)-3-hydroxypropyl)-2-fluoro-6-methylbenzamide]",8.64,9.30,< 4.82,"pIC50 [1, 8]: 8.64; pIC50 [2, 9]: 9.30"
